In BindingDB's records for doi:10.1021/jm000130i (Duquesne University, 2000):

What was measured:
[1] = target: T1, Bifunctional dihydrofolate reductase-thymidylate synthase (Toxoplasma gondii, UniProt Q07422); assay: Inhibitory concentration against Toxoplasma gondii Dihydrofolate reductase
T1 sequence (Q07422 whole entry): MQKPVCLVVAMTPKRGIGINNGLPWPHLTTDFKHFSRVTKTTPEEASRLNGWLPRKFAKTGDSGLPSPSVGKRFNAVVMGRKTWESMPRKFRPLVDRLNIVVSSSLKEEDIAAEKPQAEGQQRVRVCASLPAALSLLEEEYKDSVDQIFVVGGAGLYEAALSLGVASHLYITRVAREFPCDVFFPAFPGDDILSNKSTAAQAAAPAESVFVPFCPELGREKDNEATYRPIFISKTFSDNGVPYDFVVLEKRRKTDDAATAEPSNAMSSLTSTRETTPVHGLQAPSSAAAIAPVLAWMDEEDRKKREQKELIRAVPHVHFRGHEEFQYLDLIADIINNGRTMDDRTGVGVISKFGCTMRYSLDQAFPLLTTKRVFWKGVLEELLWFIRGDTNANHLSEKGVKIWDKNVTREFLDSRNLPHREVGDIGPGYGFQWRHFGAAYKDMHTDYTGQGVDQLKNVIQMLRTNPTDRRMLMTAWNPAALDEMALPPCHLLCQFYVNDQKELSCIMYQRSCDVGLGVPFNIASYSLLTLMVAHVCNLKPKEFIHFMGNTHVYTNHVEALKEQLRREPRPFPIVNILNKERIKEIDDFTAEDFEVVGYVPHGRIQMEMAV

Dihydrofolate reductase = Dihydrofolate reductase (Lacticaseibacillus casei, UniProt P00381); assay: Inhibitory concentration against Lactobacillus casei Dihydrofolate reductase
Dihydrofolate reductase, sequence (P00381 whole entry): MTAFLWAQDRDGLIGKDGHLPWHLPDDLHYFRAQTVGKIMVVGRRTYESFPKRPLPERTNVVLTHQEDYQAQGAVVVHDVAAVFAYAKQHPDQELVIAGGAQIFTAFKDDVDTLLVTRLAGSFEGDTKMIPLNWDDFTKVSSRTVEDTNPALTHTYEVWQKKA

C/C(=C\c1coc2nc(N)nc(N)c12)c1ccc(C(=O)N[C@@H](CCC(=O)O)C(=O)O)cc1
IC50 [1]: 4.4 µM
IC50 (Dihydrofolate reductase): 4.4 µM
